# Patent publication EP4341264B1, “PYRROLOPIRIMIDINE DERIVATIVES AND THEIR USE IN THE TREATMENT OF LEISHMANIASIS” (Drugs for Neglected Diseases Initiative, priority 2021, dated 2022)
# Read-outs that look alike come from different tables or passages of the source.
# What was measured:
# [1] = system: T. cruzi infected NIH-3T3 murine fibroblasts; settings: Peña et al. Sci. Rep. 2015, 5; cited from earlier work
# [2] = system: L. donovani parasites in infected human macrophages; settings: Peña et al. Sci. Rep. 2015, 5; cited from earlier work
# [3] = system: L. tropica (MHOM/AF/2015/HTD7); assay: Leishmania clinical isolate panel screen (drug-susceptibility assay in infected macrophages); type: cell-based; settings: Macrophage, read-out: IC50 Mean ± SEM
# Method: (§1) Female Swiss mice (BW ~20 g) were purchased from a commercial source (Janvier France) and kept in quarantine for 1 week. The animals were housed in group and drinking water was available ad libitum. To harvest peritoneal macrophages, the mice were first stimulated by intraperitoneal injection of 1 mL of starch solution (2% in PBS). After 24 h, macrophages were collected in RPMI-1640 supplemented with 5% iFCS, 2% penicillin-streptomycin and 1% L-glutamine by peritoneal lavage and immediately distributed in a 96-well plate at a concentration of 30,000 cells/well. The cells were incubated for 24 h at 37°C and 5 % CO2 to allow cell attachment.
# (§2) Strains of L. donovani, L. infantum, L. major, L. tropica, L. guyanensis and L. panamensis were selected based on their intrinsic susceptibility to the commonly used reference drugs and their geographic distribution. All strains were cultivated in HOMEM promastigote medium and sub-cultured twice weekly. Passage numbers were kept as low as possible to avoid loss of virulence. For infection of the macrophages, metacyclic promastigote cultures were examined light microscopically for the abundant presence of metacyclic promastigotes. Upon counting, promastigotes were centrifuged and diluted in RPMI-1640 to the desired concentration. The infection ratio varied based on the ability of the strain to adequately infect the host cells and ranged from 5 to 20 promastigotes per macrophage. Macrophages were infected by adding 100 µL promastigote suspension per well onto the macrophages. When ex vivo amastigotes were available (only for two lab strains), macrophages were infected at a ratio of 10/1.
# (§3) Stock solutions of the DNDi lead compounds were prepared in 100% DMSO at 20 mM and robotically further diluted in water. Miltefosine (MIL) was included as reference and formulated in water at a concentration of 20 mM. The medium was discarded from the plates to remove any residual non-internalized promastigotes and replaced by fresh RPMI-1640 medium supplemented with iFBS, P/S and L-glutamine (as described above). Next, a 2-fold dilution series of each lead compound was added to the plate with 64 µM as the highest in test-concentration for the DNDi leads and 40 µM for MIL. The 96-well plates were further incubated at 34-37°C and 5% CO2. For staining, the culture medium was discarded, and the plates were left to dry for 2-4 hours. The cells were then fixated with methanol for 10 minutes and stained with a 1/5 Giemsa dilution in water for 15 minutes. The percentage infection-inhibition compared to a positive control (untreated infected macrophages) was microscopically determined and used to calculate the IC50 and IC90 values.
# [4] = system: L. infantum (LEM3323-cl4 MIL); assay: as above; type: cell-based; settings: Macrophage, read-out: IC50 Mean ± SEM
# Method: as §1, §2, §3
# [5] = system: L. major (MHOM/SA/85/JISH118); assay: as above; type: cell-based; settings: Macrophage, read-out: IC50 Mean ± SEM
# Method: as §1, §2, §3
# [6] = system: L. major (MHOM/IL/81/Friedlin); assay: as above; type: cell-based; settings: Macrophage, read-out: IC50 Mean ± SEM
# Method: as §1, §2, §3
# [7] = system: L. infantum (MHOM/FR/96/LEM3323-cl4); assay: as above; type: cell-based; settings: Macrophage, read-out: IC50 Mean ± SEM
# Method: as §1, §2, §3
# [8] = system: L. infantum (MHOM/ES/2016/LLM-2346); assay: as above; type: cell-based; settings: Macrophage, read-out: IC50 Mean ± SEM
# Method: as §1, §2, §3
# [9] = system: L. guyanensis (MHOM/PE/02/PER 054/0); assay: as above; type: cell-based; settings: Macrophage, read-out: IC50 Mean ± SEM
# Method: as §1, §2, §3
# [10] = system: L. panamensis (MHOM/PA/71/LS94); assay: as above; type: cell-based; settings: Macrophage, read-out: IC50 Mean ± SEM
# Method: as §1, §2, §3
# [11] = system: L. infantum (MHOM/BR/2007/WC (L3015)); assay: as above; type: cell-based; settings: Macrophage, read-out: IC50 Mean ± SEM
# Method: as §1, §2, §3
# [12] = system: L. donovani (MHOM/NP/03/BPK275/0-cl18); assay: as above; type: cell-based; settings: Macrophage, read-out: IC50 Mean ± SEM
# Method: as §1, §2, §3
# [13] = system: L. infantum (LEM3323-cl4 PMM); assay: as above; type: cell-based; settings: Macrophage, read-out: IC50 Mean ± SEM
# Method: as §1, §2, §3
# [14] = system: L. donovani (MHOM/ NP/2003/BPK282/0-cl4); assay: as above; type: cell-based; settings: Macrophage, read-out: IC50 Mean ± SEM
# Method: as §1, §2, §3
# L. infantum = assay: VL hamster model in vivo efficacy (reduction of parasite load vs. control); settings: 5 days
# Method: The in vivo efficacy of the compounds C1, C3, C4, and miltefosine was evaluated in a VL hamster model infected with L. infantum. The in vivo studies were performed in accordance with the methods described by Van den Kerkhof et al. [IJP: Drugs and Drug Resistance, 2018, 8, Issue 1, 81-86]. Following treatment, the reduction of parasite load vs. control was determined in different body compartments (liver, spleen, and bone marrow) with results presented in Table 4. Table 4. Hamster in vivo efficacy
# [15] = system: L. infantum (MHOM/MA/67/ITMAP263); assay: Intracellular amastigote susceptibility assay (primary peritoneal mouse macrophages); type: cell-based; settings: Leishmania infantum, Macrophage; L. infantum (MHOM/MA/67/ITMAP263) amastigotes in mouse macrophages, 96-h incubation
# Method: (§4) To obtain primary peritoneal macrophages, Swiss mice were stimulated by intraperitoneal injection of 1 mL 2% starch in PBS 48 h prior to cell collection. Animals were euthanized with a CO2 overdose and upon removal of the skin, 10 mL of RPMI-1640 (Life Technologies) was injected into the peritoneal cavity to collect the macrophages that were then seeded into 96-well plates at a final concentration of 30,000 cells/well in 100 µL of RPMI-1640 macrophage medium, supplemented with 5% iFCS, 2% penicillin/streptomycin and 1% L-glutamine (Life technologies). After 24 h, the cells were infected with spleen derived L. infantum (MHOM/MA(BE)/67/ITMAP263) or L. donovani (MHOM/ET/67/L82) amastigotes obtained from heavily infected donor hamsters. The amastigotes were purified using two centrifugation steps and diluted to obtain an infection ratio of 5:1 in RPMI-1640 cell culture medium. After incubation for 2 h, compound dilutions were added. Drug activity was evaluated after a 96-h incubation period without washing of the cells and without renewal of the drugged culture medium. Cells were stained with Giemsa for microscopic evaluation of cellular amastigote burdens. Percentage reduction compared to the burdens in the infected non-treated control wells was used as a measure for drug activity.
# [16] = system: L. donovani (MHOM/ET/67/L82); assay: as above; type: cell-based; settings: Leishmania donovani, Macrophage; L. donovani (MHOM/ET/67/L82) amastigotes in mouse macrophages, 96-h incubation
# Method: as §4
# [17] = Cutaneous leishmaniasis, L. tropica (MHOM/AF/2015/HTD7), Miltefosine: mean only
# [18] = Cutaneous leishmaniasis, L. major (MHOM/SA/85/JISH118), Miltefosine: mean only
# [19] = Cutaneous leishmaniasis, L. major (MHOM/IL/81/Friedlin), Miltefosine: mean only
# [20] = Visceral leishmaniasis, L. infantum (MHOM/FR/96/LEM3323-cl4), Miltefosine: mean only
# [21] = Visceral leishmaniasis, L. infantum (MHOM/ES/2016/LLM-2346), Miltefosine: mean only
# [22] = Cutaneous leishmaniasis, L. guyanensis (MHOM/PE/02/PER 054/0), Miltefosine: mean only
# [23] = Cutaneous leishmaniasis, L. panamensis (MHOM/PA/71/LS94), Miltefosine: mean only
# [24] = Visceral leishmaniasis, L. infantum (MHOM/BR/2007/WC (L3015)), Miltefosine: mean only
# [25] = Visceral leishmaniasis, L. donovani (MHOM/NP/03/BPK275/0-cl18), Miltefosine: mean only
# [26] = Visceral leishmaniasis, L. donovani (MHOM/ NP/2003/BPK282/0-cl4), Miltefosine: mean only
SMILES,IC50 [4] [nM],IC50 [13] [nM],% Parasite reduction Bone marrow (L. infantum; 25 mg/kg qd) [%],% Parasite reduction Liver (L. infantum; 25 mg/kg qd) [%],% Parasite reduction Spleen (L. infantum; 25 mg/kg qd) [%],IC50 [15] [nM],IC90 [15] [nM],IC50 [16] [nM],IC90 [16] [nM],"IC50 [3, 17] [nM]","IC50 [5, 18] [nM]","IC50 [6, 19] [nM]","IC50 [7, 20] [nM]","IC50 [8, 21] [nM]","IC50 [9, 22] [nM]","IC50 [10, 23] [nM]","IC50 [11, 24] [nM]","IC50 [12, 25] [nM]","IC50 [14, 26] [nM]",further results
COc1ccccc1-c1c(C)[nH]c2nc(N)nc(C)c12 [TCMDC-143610],–,–,–,–,–,–,–,–,–,–,–,–,–,–,–,–,–,–,–,pIC50 [1]: 6.6; pIC50 [2]: 4.6
"Cc1[nH]c2nc(N)nc(C)c2c1-c1ccc(C#N)c2c1OCO2 [Compound C4, 7-(2-amino-4,6-dimethyl-7H-pyrrolo[2,3-d]pyrimidin-5-yl)-1,3-benzodioxole-4-carbonitrile]",70 ± 10,60 ± 20,99.4,99.6,99.9,150,370,160,410,–,–,–,–,–,–,–,–,–,–,IC50 [3]: 300 ± 90 nM; IC50 [5]: 560 ± 260 nM; IC50 [6]: 80 ± 20 nM; IC50 [7]: 50 ± 10 nM; IC50 [8]: 170 ± 70 nM; IC50 [9]: 10 nM; IC50 [10]: 30 ± 10 nM; IC50 [11]: 50 ± 30 nM; IC50 [12]: 40 ± 10 nM; IC50 [14]: 30 ± 30 nM; % Parasite reduction Bone marrow (L. infantum; 6.25 mg/kg bid): 93.6%; % Parasite reduction Liver (L. infantum; 6.25 mg/kg bid): 96.9%; % Parasite reduction Spleen (L. infantum; 6.25 mg/kg bid): 97.6%; % Parasite reduction Bone marrow (L. infantum; 12.5 mg/kg bid): 99.6%; % Parasite reduction Liver (L. infantum; 12.5 mg/kg bid): 99.7%; % Parasite reduction Spleen (L. infantum; 12.5 mg/kg bid): 99.9%; % Parasite reduction Bone marrow (L. infantum; 50 mg/kg qd): 99.9%; % Parasite reduction Liver (L. infantum; 50 mg/kg qd): 99.7%; % Parasite reduction Spleen (L. infantum; 50 mg/kg qd): 99.9%
"COc1nc(OCC(F)(F)F)cnc1-c1c(C)[nH]c2nc(N)nc(C)c12 [Compound C3, 5-[3-methoxy-5-(2,2,2-trifluoroethoxy)pyrazin-2-yl]-4,6-dimethyl-7H-pyrrolo[2,3-d]pyrimidin-2-amine]",400 ± 140,540 ± 50,86.7,98.4,99.0,1580,3480,1570,6480,2380 ± 420,6640 ± 610,830 ± 340,330 ± 80,690 ± 360,120 ± 10,260 ± 130,820 ± 330,230 ± 100,320 ± 160,% Parasite reduction Bone marrow (L. infantum; 12.5 mg/kg qd): 89.9%; % Parasite reduction Liver (L. infantum; 12.5 mg/kg qd): 96.1%; % Parasite reduction Spleen (L. infantum; 12.5 mg/kg qd): 98.4%
"COc1cc(C#N)ccc1-c1c(C)[nH]c2nc(N)nc(C)c12 [Compound C1, 4-(2-amino-4,6-dimethyl-7H-pyrrolo[2,3-d]pyrimidin-5-yl)-3-methoxybenzonitrile]",350 ± 80,380 ± 70,–,–,–,870,2900,1390,2320,1490 ± 240,3000 ± 1050,500 ± 170,200 ± 80,690 ± 190,60 ± 30,170 ± 110,440 ± 240,150 ± 20,100 ± 170,% Parasite reduction Bone marrow (L. infantum; 25 mg/kg bid): 98.9%; % Parasite reduction Liver (L. infantum; 25 mg/kg bid): 95.9%; % Parasite reduction Spleen (L. infantum; 25 mg/kg bid): 95.2%; % Parasite reduction Bone marrow (L. infantum; 50 mg/kg bid): 97.4%; % Parasite reduction Liver (L. infantum; 50 mg/kg bid): 99.2%; % Parasite reduction Spleen (L. infantum; 50 mg/kg bid): 95.3%
"Cc1[nH]c2nc(N)nc(C)c2c1-c1ccc(F)c2c1OCO2 [Compound C2, 5-(7-fluoro-1,3-benzodioxol-4-yl)-4,6-dimethyl-7H-pyrrolo[2,3-d]pyrimidin-2-amine]",–,–,–,–,–,150,330,140,650,–,–,–,–,–,–,–,–,–,–,–
